Consider 1 molecule from article PMC4575908 (Chemistry & biology, 2015).

Series [1] relates to CPT-11-induced diarrhea in mice. As to conditions: CPT-11 50 mg/kg i.p. without inhibitor.
In a further series the test system is patients. As to conditions: cited from earlier work.

“And” between values parts separate entries of the source, which are not always exact repeats. Identical values can stand only once. Like-named read-outs stand apart in the source and are kept apart here.

Turning to `CCc1c2c(nc3ccc(OC(=O)N4CCC(N5CCCCC5)CC4)cc13)-c1cc3c(c(=O)n1C2)COC(=O)[C@]3(O)CC` [CPT-11, Irinotecan], the “mice with bloody diarrhea” value in series [1] (day 8, 50 mg/kg) is ~ 25% and 25%; in series [1] (day 9, 50 mg/kg) it was ~ 60% and 60%; in series [1] (day 10), 100%. Besides, the “patients showing grade 3–4 diarrhea” value in the series with patients (human, in vivo) is listed as 31%. For the same molecule, in the series on patients (ref Food and Drug Administration package insert for irinotecan), the patients experiencing diarrhea entry is “up to 88%”.
